Measured values from patent publication US12325744B2, “Methods for reducing post-operative cognitive dysfunction (POCD)” (The Kennedy Trust for Rheumatology Research, priority 2010, dated 2025).
Entries after “also recorded” stand apart in the source; their conditions may differ.

Key:
HMGB-1 = assay: Plasma HMGB-1 by ELISA after LPS injection; format: in vivo, mice; conditions: LPS 1 mg/kg i.p.; IL-1Ra 100 mg/kg s.c. immediately before LPS
Experimental: Treatment. LPS derived from Escherichia Coli endotoxin ([…], InvivoGen, USA, 1 mg/kg) was dissolved in normal saline and injected intraperitoneally. IL-1Ra (Amgen, Anakinra 100 mg/kg, Nederlands) was given subcutaneously immediately before LPS administration. Dose response curve from LPS or IL-1Ra was obtained from our pilot studies to provoke or to suppress moderate degree of microglia activation respectively. Control animals were injected with equivalent volumes (0.1 ml) of saline. Mice from each treatment group were randomly assigned for assessment of either cytokine response or cognitive behavior, in order to obviate possible confounding effects of behavioral testing on inflammatory markers.
Plasma cytokine measurement. Blood was sampled transcardially after thoracotomy under terminal anesthesia 30 minutes, 2, 6, 12 hours and 1, 3, 7 days after experiments in the different cohorts and centrifuged at 3,600 rpm for 7 minutes at 4° C. Blood samples taken from animals without any interventions severed as controls. Plasma samples were stored at −20° C. for further analysis. Plasma cytokine and HMGB-1 were measured using commercially available ELISA kits from Biosource, CA and Shino-test Corporation, Japan, respectively. The sensitivities of the assays were <3 pg/ml for TNFα, <7 pg/ml for IL-1β, <3 pg/ml for IL-6 and 1 ng/ml for HMGB-1.

microglia = assay: Hippocampal microglia anti-CD11b immunohistochemistry grading (0-3) after tibial surgery; format: in vivo; conditions: wild type mice, 1 day after surgery
Description: Immunohistochemistry. Fixed brains were collected for immunohistochemical DAB staining for CD11 b and scored as previously described^21. (For further details please refer to supplemental methods).
Under terminal anesthesia with pentobarbital, mice were euthanized and perfused transcardially with ice-cold heparinized 0.1M phosphate buffer solution (PBS) followed by 4% paraformaldehyde in 0.1M PBS at pH 7.4 (VWR International, Lutterworth, Leicester, UK). The brains were harvested and post-fixed in 4% paraformaldehyde in 0.1M PBS at 4° C. and cryoprotected in 0.1M PBS solutions containing 15% sucrose for 24 hours (VWR International, Lutterworth, Leicester, UK) and then 30% sucrose for a further 48 hours. […]
Immunohistochemistry: Fixed brains were collected for immunohistochemical DAB staining for microglia activation using CD11 b and scored as previously described (13).
Methods: Adult C56BL/6J male mice were randomly assigned into groups that were: 1) untreated (naïve) animals; 2) tibial fracture under GA and analgesia; 3) 24 h following tibial surgery, i.p. injection of LPS (1 mg/kg) 4) LPS injection only. Separate cohorts of mice per group were assessed for inflammatory markers (plasma cytokines and microglial activation), or hippocampal-dependent memory using trace fear conditioning (TFC).

C57-BL6 mice = assay: Delay fear conditioning, auditory-cued test after tibial surgery; format: in vivo; conditions: wild type mice, surgery with IL-1Ra pre-treatment
Experimental: Fear conditioning tests. Mice were conditioned 30 minutes or 3 days prior to intervention by training with two cycles of tone and foot-shock pairings. In delay fear conditioning a foot-shock was administered during the last 2 seconds of each 20 seconds-lasting tone.
In trace fear conditioning, the foot-shock onset, lasting 2 seconds as in the previous paradigm, followed a 20-second gap after each tone termination. Three days after conditioning, mice were placed back in the original conditioning chamber for 270 seconds, where no tone or shock were presented, to assess recall of contextual fear memory. After 3 h mice were placed in a novel environment (different context from training) to test for auditory-cued memory. Following an initial baseline period of 135 seconds during which freezing was scored in absence of noise, the auditory cue was presented for the final 135 seconds of the test, and freezing was again recorded. (For further details please refer to supplemental methods).
The behavioral study was conducted using a conditioning chamber (Med. Associates Inc., St. Albans, VT, USA). The back- and the side-walls of the chamber were made of aluminium, whereas the front door and the ceiling were of transparent Plexiglas. The floor of the chamber consisted of 36 stainless steel rods (1 mm diameter) spaced 0.5 cm apart (center-to-center). […]

IL-1Ra: IL-1 receptor antagonist (Amgen, Anakinra)
Plasma HMGB-1 after LPS, effect of IL-1Ra (HMGB-1): had no effects on HMGB-1 release in plasma; also recorded: had no effects on HMGB-1 levels | Reactive microgliosis in hippocampus (CD11b grading) after surgery, effect of treatment (microglia): surgery did not increase hippocampal microgliosis; also recorded: surgery did not activate microglia if IL-1Ra was given pre-operatively | Freezing in the auditory-cued test after delay fear conditioning (C57-BL6 mice): showed no difference; also recorded: There was no difference between the groups
